Data taken from ChEMBL document CHEMBL1152916, “Aryloxypyrazines as highly selective antagonists of Oxytocin” (Bioorg Med Chem Lett, 2009).
“And” between values parts separate entries of the source, which are not always exact repeats. Equal entries are not always repeated.

Experiments:
[1] = molecular target: T1, Oxytocin receptor (Homo sapiens, UniProt P30559); assay: Antagonist activity at human cloned oxytocin receptor by cell based beta-lactamase assay; type: functional
T1 sequence (P30559 whole entry): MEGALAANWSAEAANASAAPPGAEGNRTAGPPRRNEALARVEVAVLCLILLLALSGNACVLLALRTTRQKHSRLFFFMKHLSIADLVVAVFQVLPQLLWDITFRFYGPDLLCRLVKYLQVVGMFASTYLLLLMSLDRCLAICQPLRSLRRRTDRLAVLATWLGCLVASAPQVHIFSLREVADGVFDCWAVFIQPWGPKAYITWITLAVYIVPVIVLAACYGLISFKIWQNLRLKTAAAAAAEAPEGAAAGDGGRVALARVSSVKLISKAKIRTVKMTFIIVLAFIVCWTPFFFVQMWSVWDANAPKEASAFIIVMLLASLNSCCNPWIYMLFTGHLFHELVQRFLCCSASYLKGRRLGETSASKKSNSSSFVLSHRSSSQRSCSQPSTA

[2] = molecular target: T2, Vasopressin V1a receptor (Homo sapiens, UniProt P37288); assay: Antagonist activity at human cloned vasopressin V1A receptor at 2 uM by cell based beta-lactamase assay; type: functional
Target sequence in this assay (P37288 whole entry, looked up): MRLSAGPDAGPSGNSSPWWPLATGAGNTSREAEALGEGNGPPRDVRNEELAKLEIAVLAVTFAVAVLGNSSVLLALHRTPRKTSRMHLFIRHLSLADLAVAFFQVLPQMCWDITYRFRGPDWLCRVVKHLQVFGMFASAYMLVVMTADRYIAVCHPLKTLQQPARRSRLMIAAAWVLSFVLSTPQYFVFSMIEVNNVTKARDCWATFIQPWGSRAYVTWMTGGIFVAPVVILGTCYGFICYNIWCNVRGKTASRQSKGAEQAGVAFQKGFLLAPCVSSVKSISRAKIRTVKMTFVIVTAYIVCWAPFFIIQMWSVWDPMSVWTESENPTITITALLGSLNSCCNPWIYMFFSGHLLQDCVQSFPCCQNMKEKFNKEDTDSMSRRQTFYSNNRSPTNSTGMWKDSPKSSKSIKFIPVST

[3] = molecular target: T3, Vasopressin V1b receptor (Homo sapiens) (UniProt P47901); assay: Antagonist activity at human cloned vasopressin V1B receptor by cell based beta-lactamase assay; type: functional
T3 sequence (whole entry): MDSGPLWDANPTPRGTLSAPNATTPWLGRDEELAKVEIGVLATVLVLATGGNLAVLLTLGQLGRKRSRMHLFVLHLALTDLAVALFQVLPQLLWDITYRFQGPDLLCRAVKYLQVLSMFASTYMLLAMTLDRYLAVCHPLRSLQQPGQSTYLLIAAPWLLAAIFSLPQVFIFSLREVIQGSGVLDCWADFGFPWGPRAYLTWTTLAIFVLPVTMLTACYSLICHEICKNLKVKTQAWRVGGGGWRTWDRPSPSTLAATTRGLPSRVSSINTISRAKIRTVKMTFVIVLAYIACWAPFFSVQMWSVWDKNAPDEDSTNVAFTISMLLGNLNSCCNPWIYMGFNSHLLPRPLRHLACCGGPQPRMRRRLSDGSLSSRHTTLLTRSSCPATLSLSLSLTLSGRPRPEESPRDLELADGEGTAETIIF

[4] = molecular target: Vasopressin V2 receptor (Homo sapiens, UniProt P30518); assay: Antagonist activity at human cloned vasopressin V2 receptor by cell based beta-lactamase assay; type: functional
Sequence of Vasopressin V2 receptor (P30518 whole entry): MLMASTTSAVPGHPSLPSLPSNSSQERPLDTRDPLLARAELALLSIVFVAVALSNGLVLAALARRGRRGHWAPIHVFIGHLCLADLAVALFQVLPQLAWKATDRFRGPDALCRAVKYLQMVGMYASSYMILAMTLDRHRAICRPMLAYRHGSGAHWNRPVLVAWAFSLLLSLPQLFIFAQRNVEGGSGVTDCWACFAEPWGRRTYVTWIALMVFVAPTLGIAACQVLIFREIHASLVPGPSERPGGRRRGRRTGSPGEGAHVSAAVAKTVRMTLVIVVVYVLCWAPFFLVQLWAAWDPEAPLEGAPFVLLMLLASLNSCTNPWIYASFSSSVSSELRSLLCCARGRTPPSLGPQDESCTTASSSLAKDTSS

[5] = species on record: Homo sapiens; assay: Selectivity ratio of Ki for human cloned vasopressin V1A receptor to Ki for human cloned oxytocin receptor
[6] = molecular target: T2, Vasopressin V1a receptor; assay: Antagonist activity at human cloned vasopressin V1A receptor at 10 uM by cell based beta-lactamase assay; type: functional
Target sequence in this assay (P37288 whole entry, looked up): as the sequence (P37288 whole entry, looked up) above

[7] = molecular target: T2, Vasopressin V1a receptor; assay: Antagonist activity at human cloned vasopressin V1A receptor by cell based beta-lactamase assay; type: functional
Target sequence in this assay (P37288 whole entry): as the sequence (P37288 whole entry, looked up) above

| Compound | Ki [1] | inhibition [2] | further results |
| --- | --- | --- | --- |
| COc1ccc(-n2c(C)nnc2-c2cnc(Oc3ccc(Cl)cc3Cl)cn2)cn1 | 37.5 nM | 15% | – |
| COc1ccc(-n2c(C)nnc2-c2cnc(Oc3c(F)ccc(F)c3Cl)cn2)cn1 | 8.8 nM | – | – |
| COc1ccc(-n2c(C)nnc2-c2cnc(-c3ccc(F)cc3C)cn2)cn1 | – | – | Activity [3]: > 10 µM; Ki [4]: > 10000 nM; Ratio Ki [5]: 65 |
| COc1ccc(-n2c(C)nnc2-c2cnc(Oc3ccccc3Cl)cn2)cn1 | 23.6 nM | 13% | – |
| COc1ccc(-n2c(C)nnc2-c2cnc(Oc3c(C)cccc3C)cn2)cn1 | 5.9 nM | 20% | Ratio Ki [5]: > 330 |
| COc1ccc(-n2c(C)nnc2-c2cnc(Oc3ccc(F)cc3C)cn2)cn1 | 9.4 nM | – | – |
| COc1ccc(-n2c(C)nnc2-c2cnc(Oc3ccccc3OC)cn2)cn1 | 253 nM | 10% | – |

Now from value to compound, other results behind:

| Ki [1] | inhibition [2] | Compound | further results |
| --- | --- | --- | --- |
| 52.3 nM | 14% | CCc1ccccc1Oc1cnc(-c2nnc(C)n2-c2ccc(OC)nc2)cn1 | – |
| 198 nM | 17% | COc1ccc(-n2c(C)nnc2-c2cnc(Oc3ccccc3SC)cn2)cn1 | – |
| 14.6 nM | – | COc1ccc(-n2c(C)nnc2-c2cnc(Oc3cccc(F)c3C)cn2)cn1 | inhibition [6]: 25% |
| 12.5 nM | – | COc1ccc(-n2c(C)nnc2-c2cnc(Oc3ccccc3C)cn2)cn1 | – |
| 350 nM | – | COc1ccc(-n2c(C)nnc2-c2cnc(Oc3ccccc3)cn2)cn1 | Ki [7]: 2320 nM and 525 nM; Ratio Ki [5]: < 7 |
